Literature values, collected in patent publication US8673972B2, “Human papilloma virus as predictor of cancer prognosis” (Foundation Medicine, Inc., priority 2012, dated 2014).

Legend:
Details in all cases: stated in words only
CDK9 = CDK9 (Homo sapiens, UniProt P50750)
CDK4 = CDK4 (Homo sapiens, UniProt P11802)
CDK7 = CDK7 (Homo sapiens, UniProt P50613)
CDK1 = CDK1 (Homo sapiens, UniProt P06493)
CDK2 = CDK2 (Homo sapiens, UniProt P24941)

Chain of CDK9 (P50750 whole entry): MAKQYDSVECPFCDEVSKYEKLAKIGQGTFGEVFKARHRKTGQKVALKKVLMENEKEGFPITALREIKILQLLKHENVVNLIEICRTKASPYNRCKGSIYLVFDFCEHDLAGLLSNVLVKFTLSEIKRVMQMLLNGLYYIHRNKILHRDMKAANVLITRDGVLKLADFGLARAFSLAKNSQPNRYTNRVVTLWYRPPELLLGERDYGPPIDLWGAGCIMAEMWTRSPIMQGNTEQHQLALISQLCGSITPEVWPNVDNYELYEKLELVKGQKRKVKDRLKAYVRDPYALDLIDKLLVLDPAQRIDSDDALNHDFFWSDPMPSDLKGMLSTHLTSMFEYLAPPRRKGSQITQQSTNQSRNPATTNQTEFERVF
Chain of CDK9 (O60563 whole entry partner): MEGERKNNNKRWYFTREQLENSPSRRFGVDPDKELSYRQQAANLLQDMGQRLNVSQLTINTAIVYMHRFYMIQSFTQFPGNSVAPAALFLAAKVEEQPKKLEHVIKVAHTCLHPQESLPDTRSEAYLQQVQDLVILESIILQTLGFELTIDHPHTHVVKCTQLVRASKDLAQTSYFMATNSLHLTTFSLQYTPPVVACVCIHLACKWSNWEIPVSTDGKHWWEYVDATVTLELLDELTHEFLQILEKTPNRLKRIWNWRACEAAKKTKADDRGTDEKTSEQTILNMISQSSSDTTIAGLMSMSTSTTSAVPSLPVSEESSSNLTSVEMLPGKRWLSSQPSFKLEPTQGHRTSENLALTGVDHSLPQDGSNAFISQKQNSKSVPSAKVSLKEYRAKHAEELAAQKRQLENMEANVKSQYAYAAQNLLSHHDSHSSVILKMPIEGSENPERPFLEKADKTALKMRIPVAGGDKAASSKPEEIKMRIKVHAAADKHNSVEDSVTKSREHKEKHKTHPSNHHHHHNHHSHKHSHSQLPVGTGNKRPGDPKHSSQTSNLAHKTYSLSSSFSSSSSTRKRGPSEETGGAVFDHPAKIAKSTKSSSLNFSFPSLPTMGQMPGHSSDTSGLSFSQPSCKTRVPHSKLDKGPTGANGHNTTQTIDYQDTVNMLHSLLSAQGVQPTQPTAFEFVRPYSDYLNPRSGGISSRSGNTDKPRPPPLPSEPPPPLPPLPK
Chain of CDK4 (P11802 whole entry): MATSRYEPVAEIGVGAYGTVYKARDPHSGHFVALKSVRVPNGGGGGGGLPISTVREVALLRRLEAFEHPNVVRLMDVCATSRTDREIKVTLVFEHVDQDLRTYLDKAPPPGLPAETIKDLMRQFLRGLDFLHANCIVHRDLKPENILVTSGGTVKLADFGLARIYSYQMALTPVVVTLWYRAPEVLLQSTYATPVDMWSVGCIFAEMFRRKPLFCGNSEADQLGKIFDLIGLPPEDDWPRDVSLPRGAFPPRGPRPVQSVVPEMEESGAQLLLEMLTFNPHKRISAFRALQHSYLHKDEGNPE
Chain of CDK4 (P24385 whole entry partner): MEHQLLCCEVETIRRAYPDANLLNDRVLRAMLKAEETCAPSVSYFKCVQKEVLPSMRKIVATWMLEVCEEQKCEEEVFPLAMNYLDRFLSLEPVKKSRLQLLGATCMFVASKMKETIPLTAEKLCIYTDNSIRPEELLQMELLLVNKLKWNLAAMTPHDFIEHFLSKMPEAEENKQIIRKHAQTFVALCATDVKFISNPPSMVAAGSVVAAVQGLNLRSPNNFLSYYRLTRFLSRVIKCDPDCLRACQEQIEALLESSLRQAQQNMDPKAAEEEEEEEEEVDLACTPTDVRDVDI
Chain of CDK7 (P50613 whole entry): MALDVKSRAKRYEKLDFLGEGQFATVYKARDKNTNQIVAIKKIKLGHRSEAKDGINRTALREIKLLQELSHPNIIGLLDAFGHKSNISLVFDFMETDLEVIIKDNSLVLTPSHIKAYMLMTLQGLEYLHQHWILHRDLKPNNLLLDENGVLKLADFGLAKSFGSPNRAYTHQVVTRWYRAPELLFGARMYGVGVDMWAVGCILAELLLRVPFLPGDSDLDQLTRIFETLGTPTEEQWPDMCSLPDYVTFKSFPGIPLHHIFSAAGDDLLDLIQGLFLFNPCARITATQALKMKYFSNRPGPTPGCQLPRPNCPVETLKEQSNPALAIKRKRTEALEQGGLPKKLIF
Chain of CDK7 (P51946 whole entry partner): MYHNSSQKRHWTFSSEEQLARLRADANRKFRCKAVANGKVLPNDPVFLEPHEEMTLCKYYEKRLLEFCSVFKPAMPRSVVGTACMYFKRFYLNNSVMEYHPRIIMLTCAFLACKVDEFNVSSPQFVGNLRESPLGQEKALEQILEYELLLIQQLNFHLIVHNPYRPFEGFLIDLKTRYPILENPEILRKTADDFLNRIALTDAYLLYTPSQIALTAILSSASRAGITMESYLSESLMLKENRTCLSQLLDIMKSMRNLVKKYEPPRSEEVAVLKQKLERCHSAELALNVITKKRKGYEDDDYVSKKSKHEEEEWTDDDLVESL
Chain of CDK7 (P51948 whole entry partner): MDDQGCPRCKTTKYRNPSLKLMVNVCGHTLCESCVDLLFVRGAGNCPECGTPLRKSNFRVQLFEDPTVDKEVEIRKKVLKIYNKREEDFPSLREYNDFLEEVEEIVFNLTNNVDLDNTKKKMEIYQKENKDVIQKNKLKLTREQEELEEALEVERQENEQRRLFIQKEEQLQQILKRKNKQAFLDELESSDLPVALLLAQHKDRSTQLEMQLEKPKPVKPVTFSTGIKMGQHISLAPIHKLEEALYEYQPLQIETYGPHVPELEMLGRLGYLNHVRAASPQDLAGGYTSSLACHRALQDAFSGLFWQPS
Chain of CDK1 (P06493 whole entry): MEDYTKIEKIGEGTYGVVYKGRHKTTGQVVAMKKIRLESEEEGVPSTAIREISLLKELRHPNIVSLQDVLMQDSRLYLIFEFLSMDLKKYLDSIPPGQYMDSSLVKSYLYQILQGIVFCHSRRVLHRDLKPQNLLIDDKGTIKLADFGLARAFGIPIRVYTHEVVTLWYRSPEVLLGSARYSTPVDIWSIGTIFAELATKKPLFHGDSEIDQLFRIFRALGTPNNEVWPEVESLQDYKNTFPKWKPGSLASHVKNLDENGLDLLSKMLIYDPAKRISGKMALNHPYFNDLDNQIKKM
Chain of CDK1 (P14635 whole entry partner): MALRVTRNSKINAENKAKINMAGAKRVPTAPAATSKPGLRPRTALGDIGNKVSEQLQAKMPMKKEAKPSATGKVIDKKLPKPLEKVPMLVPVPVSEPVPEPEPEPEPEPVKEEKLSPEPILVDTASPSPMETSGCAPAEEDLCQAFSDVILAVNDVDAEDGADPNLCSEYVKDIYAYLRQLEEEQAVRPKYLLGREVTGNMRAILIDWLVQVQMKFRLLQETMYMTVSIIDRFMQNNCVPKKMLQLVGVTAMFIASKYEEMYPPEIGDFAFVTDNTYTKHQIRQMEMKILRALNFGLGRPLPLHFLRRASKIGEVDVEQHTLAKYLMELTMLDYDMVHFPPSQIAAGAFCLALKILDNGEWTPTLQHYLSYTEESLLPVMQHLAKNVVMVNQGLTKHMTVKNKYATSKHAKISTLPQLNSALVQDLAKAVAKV

- IC50 CDK9, in words (CDK9): nanomolar range
- IC50 CDK4, in words (CDK4): nanomolar range
- IC50 CDK7, in words (CDK7): nanomolar range
- IC50 CDK1, in words (CDK1): nanomolar range
- IC50 CDK2, in words (CDK2): nanomolar range
SMILES: CC1(C)/C(=C2/C(=O)Nc3ccc(S(N)(=O)=O)cc32)Nc2ccccc21 [ZK-304709, (Z)-3,3-dimethyl-2′-oxo-[2,3′-biindolinylidene]-5′-sulfonamide]
